Patent US10137182B2, “Cancer vaccines and vaccination methods” (ImmunoCellular Therapeutics, Ltd., priority 2013, dated 2018)
“Also recorded” adds a separate entry of the source. Like-named read-outs stand apart in the source and are kept apart here. Each block holds one compound with its values, some of them ahead of it. Where no end group is shown, it is not given here.

Legend:
[1] = tested on: HLA-A2+ human ovarian cancer stem cells 882CSC
[2] = tested on: HLA-A2+ human ovarian cancer stem cells 1031CSC
HLA-A*0201 molecules = HLA-A*0201 molecules (Homo sapiens, UniProt P04439, D140Y/D185E/D98H/E176V/E277Q/G131W/G231S/I119V/I121R/I166T/I218V/L300P/L318F/N151K/N90K/P208A/P217A/Q86G/Q94H/R138H/R169H/T345S); assay: T2 cell binding assay of HLA-A2 peptides (upregulation of HLA-A2 on T2 cells, MFI by flow cytometry); conditions: for binding affinity to HLA-A*0201 molecules / T2 cells (in words): peptide 75 μg/ml, overnight
[3] = Immunogenicity in vitro of A2 peptide epitopes (Table 1); conditions: A2 peptide epitope(s) of Exemplary Vaccine 1; no method given
[4] = tested on: HLA-A2+ human ovarian cancer stem cells 1031CSC; assay: Killing assay (DDAO-SE / cleaved caspase-3) with peptide-specific CTLs against 1031CSC; conditions: CTLs induced by peptide-pulsed HLA-A2+ DC; target:effector 1:10, overnight
[5] = tested on: HLA-A2+ human ovarian cancer stem cells 882CSC; assay: Killing assay (DDAO-SE / cleaved caspase-3) with peptide-specific CTLs against 882CSC; conditions: CTLs induced by peptide-pulsed HLA-A2+ DC; target:effector 1:10, overnight

Compound: CSCC[C@H](NC(=O)[C@@H](N)C(C)C)C(=O)N[C@@H](C)C(=O)NCC(=O)N[C@H](C(=O)NCC(=O)N[C@@H](CO)C(=O)N1CCC[C@H]1C(=O)N[C@@H](Cc1ccc(O)cc1)C(=O)N[C@H](C(=O)O)C(C)C)C(C)C [HER2 p773]
- cytotoxicity of peptide-specific CTLs against 882CSC [1]: can efficiently recognize and lyse
- cytotoxicity of peptide-specific CTLs against 1031CSC [2]: can efficiently recognize and lyse

- MFI index (relative binding affinity fluorescence index, FI) (HLA-A*0201 molecules; T2 cells incubated overnight with peptide 75 μg/ml and β2-microglobulin, FI = MFI(peptide)−MFI(untreated cells)/MFI(untreated cells)): less than 1
- binding affinity to HLA-A*0201 molecules / T2 cells (in words) (HLA-A*0201 molecules): lower affinity binding
Compound: EIWTHSYKV (listed as Homo sapiens) [FOLR1 p191]
- binding affinity to HLA-A*0201 molecules / T2 cells (in words) (HLA-A*0201 molecules; listed as FOLR1p191): low affinity; also recorded: lower binding capacity
- Immunogenicity in vitro [3]: Yes

- binding affinity to HLA-A*0201 molecules / T2 cells (in words) (HLA-A*0201 molecules): high affinity binding
Compound: KVLEYVIKV (listed as Homo sapiens) [MAGE-A1 p278]
- Immunogenicity in vitro [3]: Yes

Compound: SLLFLLFSL (listed as Homo sapiens)
- Immunogenicity in vitro [3]: Yes

Compound: SLLMWITQC [NY-ESO-1 p157]
- Immunogenicity in vitro [3]: Yes

Compound: TLADFDPRV [EphA2 p883]
- cytotoxicity of peptide-specific CTLs against 1031CSC [4]: can efficiently recognize and lyse
- cytotoxicity of peptide-specific CTLs against 882CSC [5]: can efficiently recognize and lyse

- binding affinity to HLA-A*0201 molecules / T2 cells (in words) (HLA-A*0201 molecules): high affinities
- binding affinity to HLA-A*0201 molecules / T2 cells (in words) (HLA-A*0201 molecules; listed as mesothelinp531): high affinity binding
Compound: VLPLTVAEV (listed as Homo sapiens) [mesothelin p531]
- Immunogenicity in vitro [3]: Yes

Compound: WLPFGFILI [IL-13Rα2 p345]
- cytotoxicity of peptide-specific CTLs against 1031CSC [4]: can efficiently recognize and lyse
- cytotoxicity of peptide-specific CTLs against 882CSC [5]: can efficiently recognize and lyse
